{
  "source": "the supplement of paper PMC10307832",
  "test_in_all_cases": "relative viability (nuclei count vs DMSO), 5 days (fraction); higher = more cells survive",
  "key": {"[1]": {"test_system": "NCI-H2126", "outline": "(§1)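 One day after seeding in 1536-well plates, lung cancer cell lines were dosed by pin tool. Dosing was either single-drug or a fixed anchor-drug dose plus five library-drug doses (not always all listed) in √10 steps. After 5 days, nuclei were stained in one fix-and-stain step and counted on 4× images, and relative viability is the nuclei count of treated wells over that of vehicle wells, given as the median of duplicate plates.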"}, "[2]": {"test_system": "HARA", "outline": "as §1"}, "[3]": {"test_system": "NCI-H2023", "outline": "as §1"}, "[4]": {"test_system": "NCI-H1915", "outline": "as §1"}, "[5]": {"test_system": "PC-3 [JPC-3]", "outline": "as §1"}, "[6]": {"test_system": "NCI-H441", "outline": "as §1"}, "[7]": {"test_system": "LU99A", "outline": "as §1"}, "[8]": {"test_system": "NCI-H460", "outline": "as §1"}, "[9]": {"test_system": "NCI-H650", "outline": "as §1"}, "[10]": {"test_system": "NCI-H23", "outline": "as §1"}, "[11]": {"test_system": "A-427", "outline": "as §1"}, "[12]": {"test_system": "LOU-NH91", "outline": "as §1"}, "[13]": {"test_system": "NCI-H1755", "outline": "as §1"}, "[14]": {"test_system": "NCI-H322M", "outline": "as §1"}, "[15]": {"test_system": "BEN", "outline": "as §1"}, "[16]": {"test_system": "NCI-H1666", "outline": "as §1"}, "[17]": {"test_system": "SK-LU-1", "outline": "as §1"}, "[18]": {"test_system": "LCLC-97TM1", "outline": "as §1"}, "[19]": {"test_system": "LXF-289", "outline": "as §1"}},
  "data": [
    {"compound": "O=C(O)CCCCC(CCSCc1ccccc1)SCc1ccccc1", "note": "(stereo not given) [CPI-613] + CC(C)C[C@H](NC(=O)[C@H](Cc1ccccc1)NC(=O)c1cnccn1)B(O)O [Bortezomib] (partner 0.002 µM)", "values": [
      {"measurement": "relative viability", "setting": "[1]; first compound 5 µM", "value": 1.11},
      {"measurement": "relative viability", "setting": "[1]; first compound 15.81 µM", "value": 1.06},
      {"measurement": "relative viability", "setting": "[1]; first compound 50 µM", "value": 1.04},
      {"measurement": "relative viability", "setting": "[1]; first compound 158.11 µM", "value": 0.669},
      {"measurement": "relative viability", "setting": "[1]; first compound 500 µM", "value": 0.761},
      {"measurement": "relative viability", "setting": "[2]; first compound 5 µM", "value": 1.02},
      {"measurement": "relative viability", "setting": "[2]; first compound 15.81 µM", "value": 1.09},
      {"measurement": "relative viability", "setting": "[2]; first compound 50 µM", "value": 1.19},
      {"measurement": "relative viability", "setting": "[2]; first compound 158.11 µM", "value": 0.716},
      {"measurement": "relative viability", "setting": "[2]; first compound 500 µM", "value": 0.114},
      {"measurement": "relative viability", "setting": "[3]; first compound 5 µM", "value": 0.932},
      {"measurement": "relative viability", "setting": "[3]; first compound 15.81 µM", "value": 0.947},
      {"measurement": "relative viability", "setting": "[3]; first compound 50 µM", "value": 0.961},
      {"measurement": "relative viability", "setting": "[3]; first compound 158.11 µM", "value": 0.042},
      {"measurement": "relative viability", "setting": "[3]; first compound 500 µM", "value": 0.0072},
      {"measurement": "relative viability", "setting": "[4]; first compound 5 µM", "value": 0.992},
      {"measurement": "relative viability", "setting": "[4]; first compound 15.81 µM", "value": 0.99},
      {"measurement": "relative viability", "setting": "[4]; first compound 50 µM", "value": 0.946},
      {"measurement": "relative viability", "setting": "[4]; first compound 158.11 µM", "value": 0.799},
      {"measurement": "relative viability", "setting": "[4]; first compound 500 µM", "value": 0.746},
      {"measurement": "relative viability", "setting": "[5]; first compound 5 µM", "value": 0.83},
      {"measurement": "relative viability", "setting": "[5]; first compound 15.81 µM", "value": 0.695},
      {"measurement": "relative viability", "setting": "[5]; first compound 50 µM", "value": 0.755},
      {"measurement": "relative viability", "setting": "[5]; first compound 158.11 µM", "value": 0.451},
      {"measurement": "relative viability", "setting": "[5]; first compound 500 µM", "value": 0.452},
      {"measurement": "relative viability", "setting": "[6]; first compound 5 µM", "value": 0.447},
      {"measurement": "relative viability", "setting": "[6]; first compound 15.81 µM", "value": 0.44},
      {"measurement": "relative viability", "setting": "[6]; first compound 50 µM", "value": 0.537},
      {"measurement": "relative viability", "setting": "[6]; first compound 158.11 µM", "value": 0.129},
      {"measurement": "relative viability", "setting": "[6]; first compound 500 µM", "value": 0.005},
      {"measurement": "relative viability", "setting": "[7]; first compound 5 µM", "value": 1.04},
      {"measurement": "relative viability", "setting": "[7]; first compound 15.81 µM", "value": 1.04},
      {"measurement": "relative viability", "setting": "[7]; first compound 50 µM", "value": 0.961},
      {"measurement": "relative viability", "setting": "[7]; first compound 158.11 µM", "value": 0.815},
      {"measurement": "relative viability", "setting": "[7]; first compound 500 µM", "value": 0.08},
      {"measurement": "relative viability", "setting": "[8]; first compound 5 µM", "value": 1.07},
      {"measurement": "relative viability", "setting": "[8]; first compound 15.81 µM", "value": 1.12},
      {"measurement": "relative viability", "setting": "[8]; first compound 50 µM", "value": 0.895},
      {"measurement": "relative viability", "setting": "[8]; first compound 158.11 µM", "value": 0.445},
      {"measurement": "relative viability", "setting": "[8]; first compound 500 µM", "value": 0.0063},
      {"measurement": "relative viability", "setting": "[9]; first compound 5 µM", "value": 0.828},
      {"measurement": "relative viability", "setting": "[9]; first compound 15.81 µM", "value": 0.617},
      {"measurement": "relative viability", "setting": "[9]; first compound 50 µM", "value": 0.92},
      {"measurement": "relative viability", "setting": "[9]; first compound 158.11 µM", "value": 0.689},
      {"measurement": "relative viability", "setting": "[9]; first compound 500 µM", "value": 0.452},
      {"measurement": "relative viability", "setting": "[10]; first compound 5 µM", "value": 0.958},
      {"measurement": "relative viability", "setting": "[10]; first compound 15.81 µM", "value": 1.1},
      {"measurement": "relative viability", "setting": "[10]; first compound 50 µM", "value": 0.895},
      {"measurement": "relative viability", "setting": "[10]; first compound 158.11 µM", "value": 0.175},
      {"measurement": "relative viability", "setting": "[10]; first compound 500 µM", "value": 0.0214},
      {"measurement": "relative viability", "setting": "[11]; first compound 5 µM", "value": 0.939},
      {"measurement": "relative viability", "setting": "[11]; first compound 15.81 µM", "value": 0.901},
      {"measurement": "relative viability", "setting": "[11]; first compound 50 µM", "value": 0.96},
      {"measurement": "relative viability", "setting": "[11]; first compound 158.11 µM", "value": 0.761},
      {"measurement": "relative viability", "setting": "[11]; first compound 500 µM", "value": 0.253},
      {"measurement": "relative viability", "setting": "[12]; first compound 5 µM", "value": 0.49},
      {"measurement": "relative viability", "setting": "[12]; first compound 15.81 µM", "value": 0.524},
      {"measurement": "relative viability", "setting": "[12]; first compound 50 µM", "value": 0.393},
      {"measurement": "relative viability", "setting": "[12]; first compound 158.11 µM", "value": 0.435},
      {"measurement": "relative viability", "setting": "[12]; first compound 500 µM", "value": 0.467},
      {"measurement": "relative viability", "setting": "[13]; first compound 5 µM", "value": 0.959},
      {"measurement": "relative viability", "setting": "[13]; first compound 15.81 µM", "value": 0.945},
      {"measurement": "relative viability", "setting": "[13]; first compound 50 µM", "value": 0.875},
      {"measurement": "relative viability", "setting": "[13]; first compound 158.11 µM", "value": 0.707},
      {"measurement": "relative viability", "setting": "[13]; first compound 500 µM", "value": 0.114},
      {"measurement": "relative viability", "setting": "[14]; first compound 5 µM", "value": 1.19},
      {"measurement": "relative viability", "setting": "[14]; first compound 15.81 µM", "value": 1.2},
      {"measurement": "relative viability", "setting": "[14]; first compound 50 µM", "value": 1.27},
      {"measurement": "relative viability", "setting": "[14]; first compound 158.11 µM", "value": 1.31},
      {"measurement": "relative viability", "setting": "[14]; first compound 500 µM", "value": 0.908},
      {"measurement": "relative viability", "setting": "[15]; first compound 5 µM", "value": 0.819},
      {"measurement": "relative viability", "setting": "[15]; first compound 15.81 µM", "value": 0.539},
      {"measurement": "relative viability", "setting": "[15]; first compound 50 µM", "value": 0.633},
      {"measurement": "relative viability", "setting": "[15]; first compound 158.11 µM", "value": 0.708},
      {"measurement": "relative viability", "setting": "[15]; first compound 500 µM", "value": 0.658},
      {"measurement": "relative viability", "setting": "[16]; first compound 5 µM", "value": 0.883},
      {"measurement": "relative viability", "setting": "[16]; first compound 15.81 µM", "value": 0.603},
      {"measurement": "relative viability", "setting": "[16]; first compound 50 µM", "value": 0.757},
      {"measurement": "relative viability", "setting": "[16]; first compound 158.11 µM", "value": 0.175},
      {"measurement": "relative viability", "setting": "[16]; first compound 500 µM", "value": 0.0891},
      {"measurement": "relative viability", "setting": "[17]; first compound 5 µM", "value": 1.31},
      {"measurement": "relative viability", "setting": "[17]; first compound 15.81 µM", "value": 0.781},
      {"measurement": "relative viability", "setting": "[17]; first compound 50 µM", "value": 1.32},
      {"measurement": "relative viability", "setting": "[17]; first compound 158.11 µM", "value": 1.02},
      {"measurement": "relative viability", "setting": "[17]; first compound 500 µM", "value": 0.935},
      {"measurement": "relative viability", "setting": "[18]; first compound 5 µM", "value": 0.728},
      {"measurement": "relative viability", "setting": "[18]; first compound 15.81 µM", "value": 0.276},
      {"measurement": "relative viability", "setting": "[18]; first compound 50 µM", "value": 0.583},
      {"measurement": "relative viability", "setting": "[18]; first compound 158.11 µM", "value": 0.532},
      {"measurement": "relative viability", "setting": "[18]; first compound 500 µM", "value": 0.819},
      {"measurement": "relative viability", "setting": "[19]; first compound 5 µM", "value": 0.981},
      {"measurement": "relative viability", "setting": "[19]; first compound 15.81 µM", "value": 1.03},
      {"measurement": "relative viability", "setting": "[19]; first compound 50 µM", "value": 0.94},
      {"measurement": "relative viability", "setting": "[19]; first compound 158.11 µM", "value": 0.554},
      {"measurement": "relative viability", "setting": "[19]; first compound 500 µM", "value": 0.069}
    ]}
  ]
}
